Data as given in ChEMBL document CHEMBL4622945, “Synthesis and antiproliferative activity of C- and N-terminal analogues of culicinin D” (Bioorg Med Chem Lett, 2020).
Square brackets hold non-standard residues; d marks the D form. Peptide text beside a SMILES is read from it. * marks the point of attachment. NH((S)CH(Me)CH2NHC2H4OH) = C[C@@H](CNCCO)N*; Alaψ(CH2NMeCH2CH2OH) = C[C@@H](CN(C)CCO)N*; NH((S)CH(CH3)CH2NHMe) = CNC[C@H](C)N*; Gly(octyl) = CCCCCCCC[C@H](N)C(=O)O; X5 = C[C@@H](N*)[C@@H](O)c1ccccc1; Hyp = O=C(O)[C@@H]1C[C@@H](O)CN1; Cha = N[C@@H](CC1CCCCC1)C(=O)O; Phe(ol) = N[C@H](CO)Cc1ccccc1; Lauroyl = CCCCCCCCCCCC(=O)*; Decanoyl = CCCCCCCCCC(=O)*; X1 = C[C@@H](CN1CCNCC1)N*; Aib = CC(C)(N)C(=O)O; Butyryl = CCCC(=O)*; NHCH2CH2OH = OCCN*; βAla = NCCC(=O)O

Legend:
Assay type in all cases: functional, cell-based
NCI-H460 = test: Antiproliferative activity against human NCI-H460 cells assessed as reduction in cell growth by SRB assay
SK-BR-3 = test: Antiproliferative activity against human SKBR3 cells assessed as reduction in cell growth by SRB assay
T47D = test: Antiproliferative activity against human T47D cells assessed as reduction in cell growth by SRB assay
MDA-MB-468 = test: Antiproliferative activity against human MDA-MB-468 cells assessed as reduction in cell growth by SRB assay

Compound | IC50 (NCI-H460) | IC50 (SK-BR-3) | IC50 (T47D) | IC50 (MDA-MB-468)
CCCCCCCC[C@H](NC(=O)C(C)(C)NC(=O)C(C)(C)NC(=O)[C@H](CC1CCCCC1)NC(=O)[C@@H]1CCCN1C(=O)CCC)C(=O)N[C@@H](CC(C)C)C(=O)NC(C)(C)C(=O)N[C@@H](CC(C)C)C(=O)NCCC(=O)N[C@H](CO)Cc1ccccc1 (Butyryl-P[Cha][Aib][Aib][Gly(octyl)]L[Aib]L[βAla][Phe(ol)]) | 45 nM | 178 nM | 247 nM | 144 nM
CCCCCCCC[C@H](NC(=O)C(C)(C)NC(=O)C(C)(C)NC(=O)[C@H](CC1CCCCC1)NC(=O)[C@@H]1C[C@@H](O)CN1C(=O)CCC)C(=O)N[C@@H](CC(C)C)C(=O)NC(C)(C)C(=O)N[C@@H](CC(C)C)C(=O)NCCC(=O)N[C@@H](C)CNCCO (Butyryl-[Hyp][Cha][Aib][Aib][Gly(octyl)]L[Aib]L[βAla]-{NH((S)CH(Me)CH2NHC2H4OH)}) | 40 nM | 124 nM | 38 nM | 37 nM
CCCCCCCC[C@H](NC(=O)C(C)(C)NC(=O)C(C)(C)NC(=O)[C@H](CC1CCCCC1)NC(=O)[C@@H]1CCCN1C(=O)CCC)C(=O)N[C@@H](CC(C)C)C(=O)NC(C)(C)C(=O)N[C@@H](CC(C)C)C(=O)NCCC(=O)O (Butyryl-P[Cha][Aib][Aib][Gly(octyl)]L[Aib]L[βAla]-OH) | > 1000 nM | > 1000 nM | > 1000 nM | > 1000 nM
CCCCCCCC[C@H](NC(=O)C(C)(C)NC(=O)C(C)(C)NC(=O)[C@H](CC1CCCCC1)NC(=O)[C@@H]1CCCN1C(=O)CCC)C(=O)N[C@@H](CC(C)C)C(=O)NC(C)(C)C(=O)N[C@@H](CC(C)C)C(=O)NCCC(=O)N[C@@H](C)CN1CCNCC1 (Butyryl-P[Cha][Aib][Aib][Gly(octyl)]L[Aib]L[βAla]-X1) | > 1000 nM | > 1000 nM | > 1000 nM | > 1000 nM
CCCCCCCCCC(=O)N1CCC[C@H]1C(=O)N[C@@H](CC1CCCCC1)C(=O)NC(C)(C)C(=O)NC(C)(C)C(=O)N[C@@H](CCCCCCCC)C(=O)N[C@@H](CC(C)C)C(=O)NC(C)(C)C(=O)N[C@@H](CC(C)C)C(=O)NCCC(=O)N[C@@H](C)CNCCO (Decanoyl-P[Cha][Aib][Aib][Gly(octyl)]L[Aib]L[βAla]-{NH((S)CH(Me)CH2NHC2H4OH)}) | 9 nM | 20 nM | 13 nM | 6 nM
CCCCCCCC[C@H](NC(=O)C(C)(C)NC(=O)C(C)(C)NC(=O)[C@H](CC1CCCCC1)NC(=O)[C@@H]1CCCN1C(=O)CCC)C(=O)N[C@@H](CC(C)C)C(=O)NC(C)(C)C(=O)N[C@@H](CC(C)C)C(=O)NCCC(=O)NCCO (Butyryl-P[Cha][Aib][Aib][Gly(octyl)]L[Aib]L[βAla]-NHCH2CH2OH) | 223 nM | 512 nM | 767 nM | 363 nM
CCCCCCCC[C@H](NC(=O)C(C)(C)NC(=O)C(C)(C)NC(=O)[C@H](CC1CCCCC1)NC(=O)[C@@H]1CCCN1C(=O)CCC)C(=O)N[C@@H](CC(C)C)C(=O)NC(C)(C)C(=O)N[C@@H](CC(C)C)C(=O)NCCC(=O)N[C@H](C)[C@@H](O)c1ccccc1 (Butyryl-P[Cha][Aib][Aib][Gly(octyl)]L[Aib]L[βAla]-X5) | 89 nM | 344 nM | 471 nM | 242 nM
CCCCCCCC[C@H](NC(=O)C(C)(C)NC(=O)C(C)(C)NC(=O)[C@H](CC1CCCCC1)NC(=O)[C@@H]1CCCN1C(=O)CCC)C(=O)N[C@@H](CC(C)C)C(=O)NC(C)(C)C(=O)N[C@@H](CC(C)C)C(=O)NCCC(=O)N[C@@H](C)CNC (Butyryl-P[Cha][Aib][Aib][Gly(octyl)]L[Aib]L[βAla]-{NH((S)CH(CH3)CH2NHMe)}) | 3 nM | 13 nM | 5 nM | 3 nM
CCCCCCCC[C@H](NC(=O)C(C)(C)NC(=O)C(C)(C)NC(=O)[C@H](CC1CCCCC1)NC(=O)[C@@H]1CCCN1C(=O)CCC)C(=O)N[C@@H](CC(C)C)C(=O)NC(C)(C)C(=O)N[C@@H](CC(C)C)C(=O)NCCC(=O)N[C@@H](C)CN(C)CCO (Butyryl-P[Cha][Aib][Aib][Gly(octyl)]L[Aib]L[βAla]-{Alaψ(CH2NMeCH2CH2OH)}) | 2 nM | 8 nM | 3 nM | 2 nM
CCCCCCCC[C@H](NC(=O)C(C)(C)NC(=O)C(C)(C)NC(=O)[C@H](CC1CCCCC1)NC(=O)[C@H](C)NC(=O)CCC)C(=O)N[C@@H](CC(C)C)C(=O)NC(C)(C)C(=O)N[C@@H](CC(C)C)C(=O)NCCC(=O)N[C@@H](C)CNCCO (Butyryl-A[Cha][Aib][Aib][Gly(octyl)]L[Aib]L[βAla]-{NH((S)CH(Me)CH2NHC2H4OH)}) | 2 nM | 10 nM | 5 nM | 3 nM
CCCCCCCCCCCC(=O)N1CCC[C@H]1C(=O)N[C@@H](CC1CCCCC1)C(=O)NC(C)(C)C(=O)NC(C)(C)C(=O)N[C@@H](CCCCCCCC)C(=O)N[C@@H](CC(C)C)C(=O)NC(C)(C)C(=O)N[C@@H](CC(C)C)C(=O)NCCC(=O)N[C@@H](C)CNCCO (Lauroyl-P[Cha][Aib][Aib][Gly(octyl)]L[Aib]L[βAla]-{NH((S)CH(Me)CH2NHC2H4OH)}) | 37 nM | 73 nM | 63 nM | 23 nM
